# Source: US8349862B2, “Pyridine derivatives for the treatment of metabolic disorders related to insulin resistance or hyperglycemia” (Piramal Healthcare Limited, priority 2006, dated 2013)
# Where “and” joins values, the source holds several entries; their conditions need not be identical. Equal values may be shown once.
# Tests used:
# [1] = system: insulin resistant adipocytes (differentiated 3T3 L1 fibroblasts); test: In vitro model exhibiting insulin resistance: 14C-2-deoxyglucose uptake in dexamethasone-treated adipocytes; format: cell-based; conditions: test compound 10 μM/mL, Rosiglitazone 0.1 μM; for Fold Vehicle (fold activity over vehicle, glucose uptake): vehicle = 1.0, cut off for activity 1.50 fold
# Protocol: The assay was designed as in reference, British Journal of Pharmacology, 130, 351-58, 2000, the disclosure of which is incorporated by reference for the teaching of the assay. The solution of test compound (10 μM/mL) was prepared in DMSO. […] Differentiation into adipocytes was induced by known methods as described below. (J. Biol. […] 3T3 L1 fibroblasts were seeded in 24- or 6-well plates at a density of 0.5-2×10^4 cells/well and were allowed to reach maximal confluency. The confluent fibroblasts were exposed to culture medium for 2 days. […] The mature adipocytes were exposed to dexamethasone, 100 nM added in ethanol, in culture medium and incubated for 2 days. […] The test compound was also present during this period. After 3-4 hours, the medium was aspirated and replaced with Kreb's Ringer phosphate (KRP) buffer at pH 7.4 and with human/porcine insulin, 200 nM. The cells were incubated for 30 minutes at 37° C. […] After exactly 5 minutes, the plates were transferred to ice trays and medium was rapidly aspirated. The cell layer was washed twice with ice-cold phosphate buffered saline, (PBS), pH 7.4. […] Non-specific glucose uptake was assayed in wells exposed to cytochalasin B, inhibitor of glucose transport. […] Statistical analysis was performed using unpaired t-test.
# Human PPARγ = molecular target: T1, Human PPARγ (Homo sapiens, UniProt P37231); test: Human PPARγ transactivation assay (luciferase reporter, HEK293 cells); format: cell-based
# T1 construct: Human full length PPARγ cDNA was cloned into pSG5 expression vector; expressed in transfected cells; host or cells: HEK293
# T1 sequence (P37231 1-505): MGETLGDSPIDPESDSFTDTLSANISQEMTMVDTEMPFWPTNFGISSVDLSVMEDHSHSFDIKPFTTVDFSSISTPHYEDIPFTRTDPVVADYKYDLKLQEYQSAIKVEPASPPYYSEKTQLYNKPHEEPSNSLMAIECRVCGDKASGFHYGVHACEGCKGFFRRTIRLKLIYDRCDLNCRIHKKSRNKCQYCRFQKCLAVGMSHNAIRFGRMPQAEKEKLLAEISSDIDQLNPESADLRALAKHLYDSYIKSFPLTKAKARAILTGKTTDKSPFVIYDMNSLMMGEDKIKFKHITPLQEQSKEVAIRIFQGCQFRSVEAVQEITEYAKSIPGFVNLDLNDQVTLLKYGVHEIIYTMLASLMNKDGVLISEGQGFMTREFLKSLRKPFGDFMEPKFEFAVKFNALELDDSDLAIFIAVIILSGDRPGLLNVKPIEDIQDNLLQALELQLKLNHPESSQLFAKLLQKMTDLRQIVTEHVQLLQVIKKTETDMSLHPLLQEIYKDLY
# Protocol: The assay was designed as in the reference, Biochem. Biophys. Res. Comm. 175:865-871, 1991, the disclosure of which is incorporated by reference for the teaching of the assay.
# Human PPARγ activity was evaluated by transactivation using a luciferase reporter gene. […] Human full length PPARγ cDNA was cloned into pSG5 expression vector (Stratagene, Lo Jolla, Calif.).
# HEK293 cells were seeded in 24 well plates and grown in DMEM supplemented with 10% (v/v) FCS. After 24 hours, they were transfected with 100 ng of hPPARγ receptor and 300 ng of AOX-3×PPRE-LUC reporter construct per well using Fugen 6 transfection reagent (Roche, Indianapolis, Ind.). […] The control was 0.1% DMSO. After 48 hours, transactivation activity was determined by luciferase assay using Steady Glow reagent (Promega, Madison, Wis.).
# Mouse PPARγ = molecular target: T2, Mouse PPARγ (Mus musculus, UniProt P37238); test: Mouse PPARγ assay (TransAM PPARγ ELISA, 3T3-L1 fibroblasts); format: cell-based; conditions: 72 hrs, Compound 1 50 μM, Rosiglitazone 10 μM
# T2 construct: endogenous in cells; host or cells: 3T3-L1 fibroblasts
# T2 sequence (P37238 1-505): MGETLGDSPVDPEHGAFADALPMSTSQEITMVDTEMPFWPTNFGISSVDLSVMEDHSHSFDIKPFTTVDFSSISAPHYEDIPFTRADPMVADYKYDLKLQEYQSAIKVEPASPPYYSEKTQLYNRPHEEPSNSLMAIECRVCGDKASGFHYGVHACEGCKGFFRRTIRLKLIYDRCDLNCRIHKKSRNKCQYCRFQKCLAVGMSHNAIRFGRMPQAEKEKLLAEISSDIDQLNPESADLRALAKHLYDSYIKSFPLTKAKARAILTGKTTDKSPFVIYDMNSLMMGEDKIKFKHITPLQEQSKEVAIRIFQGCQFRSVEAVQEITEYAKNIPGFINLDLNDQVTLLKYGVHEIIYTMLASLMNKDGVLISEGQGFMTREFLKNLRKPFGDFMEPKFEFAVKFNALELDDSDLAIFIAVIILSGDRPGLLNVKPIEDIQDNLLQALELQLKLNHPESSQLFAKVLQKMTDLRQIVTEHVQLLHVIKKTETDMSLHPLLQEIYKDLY
# Protocol: The assay was designed as in the reference, Blood, 104(5), 1361-8, 2004, the disclosure of which is incorporated by reference for the teaching of the assay.
# 3T3-L1 fibroblasts were seeded in 6-well plates at a density of 4×10^4 cells/well and cultured in DMEM containing 10% calf serum. […] The plates were incubated for 72 hrs at 37° C. in a CO2 incubator with fresh medium containing test substances added after first 48 hrs. After 72 hrs, the medium was removed; the cell layer was washed and processed for the PPARγ assay as per the instruction of the manufacturer (Active Motif, North America, California, USA). PPARγ activation was determined using 96-well ELISA assay as per the instruction manual (TransAM PPARγ. Active Motif, Cat 0.40196).
# [2] = system: genetically diabetic db/db BL/6J mice; test: Screening in db/db BL/6J mice: reduction of plasma glucose; format: in vivo; conditions: 10 days
# Protocol: The protocol was designed as in references. • 1.
# The screening of compounds was based on their ability to reduce the plasma glucose levels in genetically diabetic db/db BL/6J mice.
# Male db/db mice (obtained from the Animal House of Nicholas Piramal Research Centre, Goregaon, Mumbai, India) were used for this study (body weight in the range of 30-40 g and age is 6-8 weeks) and were kept eight per cage in individually ventilated cages at controlled temperature (22±1° C.) and humidity (45±5%). Food and water were provided ad libitum during their laboratory stay, except for four hours fasting prior to blood sample collection. 12 hours light and dark cycle was followed during the whole study period.
# After 4 hours fasting blood samples were collected from mice. Mice showing plasma glucose levels between 300 to 500 mg/dl were divided in groups (8-10 per group) such that the mean plasma glucose levels and variation within the group, for each group, is nearly the same. After grouping, mice in respective groups received treatment with 0.5% CMC vehicle, standard compound or test compounds for 10 days.
# After 4 hours fasting, mice were anaesthetized using isoflurane (inhalation anesthetic), and blood samples were collected through the retro orbital plexus. Collected blood samples were centrifuged at 7000 rpm for 10 minutes at 4° C.; Separated plasma was used for estimation of plasma glucose using diagnostic kits (Diasys, Germany). Plasma glucose levels of treated groups were normalized with control group using the following formula, which accounted for the changes in control group.
# Formula used for normalization was *: {1−(Ratio of mean plasma glucose levels of control group on day 10 to day 0)/(Ratio of plasma glucose levels of treated group on day 10 to day 0)}×100.
# lean C57Bl6/J mice = test: Evaluation of antiobesity, acute study: food intake in fasted lean mice; format: in vivo; conditions: 100 mg/kg intraperitoneally, 2 hours after food introduction, p<0.001 vs vehicle
# Source text: The effect of standard (Sibutramine), Compound 1 and Compound 11 on food intake in lean C57Bl6/J mice at 2, 4, 6 and 24 hrs post-food introductions is indicated.
# The assay was designed as in reference, PCT publication WO 2003086306, the disclosure of which is incorporated by reference for the teaching of the assay.
# Male C57Bl6/J mice, weighing 20-25 g, were housed individually in the animal facility. Water and Chow (Amrut Laboratory Animal feed, Sangli, Maharashtra, India) were available ad libitum. One day before the study, the animals were weighed and separated into treatment groups having similar average body weight. For the experiment, the animals were deprived of food overnight for 16 hours. They were dosed intraperitoneally with test compounds (100 mg/kg) or comparator standard (Sibutramine, 3 mg/kg) in saline vehicle (10 mL/kg). Half an hour after drug administration the animals were presented with a pre-weighed amount of food in the food cup. Food that remained in the cup was measured at various time points. The effect of standard, and test compounds on food intake in fasted lean C57Bl6/J mice at 2, 4, 6 and 24 hrs post-food introductions was evaluated. […] (*** p<0.001 vs vehicle treated controls) (b) Chronic Study
# [3] = system: diet induced obese (DIO) C57Bl6/J mice; test: Evaluation of antiobesity, chronic study: diet induced obese mice; format: in vivo; conditions: 200 mg/kg intraperitoneally, 10 days of treatment
# Protocol: Diet induced obese (DIO) mice were treated with either standard (Sibutramine) or Compound 1 for 10 days.
# Cumulative body weight gain of diet induced obese (DIO) mice treated with either standard (Sibutramine) or Compound 1 for 10 days is indicated.
# The assay was designed as in the reference, British Journal of Pharmacology, 132, 1898-1904, 2001, the disclosure of which is incorporated by reference for the teaching of the assay. Male C57Bl6/J mice (3-4 weeks of age) were housed in groups of 10 animals per cage in the animal facility. High fat diet (D12451 Research Diets Inc., New Brunswick, N.J. 08901, USA), 45% kcal from fat) and water were provided ad libitum for 14 weeks. After this period, the animals were housed individually in cages. The animals were weighed and separated into groups with similar body weight. They were acclimatized to the experimental procedures for 2 days Animals were dosed intraperitoneally with test compound (200 mg/kg) or the standard (Sibutramine, 3 mg/kg) in 10 ml/kg of 0.5% CMC vehicle between 10:00 h-12:00 h. After drug administration the animals were presented with a pre-weighed amount of food in the food cup. Weight of feed remaining in the cup and body weight were recorded daily just prior to dosing. The change in weight and cumulative food intake were computed. The results are indicated in FIG. 2 and FIG. 3. • Conclusions: 1. […]
SMILES,"% of Rosiglitazone (comparison with Rosiglitazone, glucose uptake) [1]","Fold Vehicle (fold activity over vehicle, glucose uptake) [1]",also measured
"CC(=O)N1CCN(c2ccc(Oc3ncc(NS(=O)(=O)c4ccc(Cl)cc4Cl)cc3Cl)cc2)CC1 [Compound 1, N-(6-(4-(4-Acetylpiperazin-1-yl)phenoxy)-5-chloropyridin-3-yl)-2,4-dichlorobenzene-sulfonamide]",61.4%,2.10 ± 0.05,PPARγ activity (% of rosiglitazone) (Human PPARγ): 6.4 % of rosiglitazone; PPARγ activity (% of rosiglitazone) (Mouse PPARγ): 5.1 % of rosiglitazone; Normalization with control (plasma glucose reduction) ([2]; 100 mpk bid): 46.07 ± 4.55; Inhibition of food intake (lean C57Bl6/J mice): effective in inhibiting food intake; Cumulative body weight gain [3]: effective in reducing cumulative body weight gain; Cumulative food intake [3]: effective in reducing cumulative food intake; melting point: 215 to 216 °C
"O=S(=O)(Nc1cnc(Oc2ccc(N3CCNCC3)cc2)c(Cl)c1)c1ccc(Cl)cc1Cl [Compound 11, 2,4-Dichloro-N-(5-chloro-6-(4-(piperazin-1-yl)phenoxy)pyridin-3-yl)benzene sulfonamide]",–,–,Inhibition of food intake (lean C57Bl6/J mice): effective in inhibiting food intake
"CC(=O)N1CCN(c2ccc(Oc3ncc(NS(=O)(=O)c4ccc(Cl)c(Cl)c4)cc3Cl)cc2)CC1 [Compound 6, N-(6-(4-(4-Acetylpiperazin-1-yl)phenoxy)-5-chloropyridin-3-yl)-3,4-dichlorobenzene-sulfonamide]",69.76%,1.93 ± 0.06,–
"COc1ccc(OC)c(S(=O)(=O)Nc2cnc(Oc3ccc(N4CCN(C(C)=O)CC4)cc3)c(Cl)c2)c1 [Compound 4, N-(6-(4-(4-Acetylpiperazin-1-yl)phenoxy)-5-chloropyridin-3-yl)-2,5-dimethoxy-benzenesulfonamide]",41.33%,1.55 ± 0.03,–
"CC(=O)N1CCN(c2ccc(Oc3ncc(NS(=O)(=O)c4ccc(C(F)(F)F)cc4Cl)cc3Cl)cc2)CC1 [Compound 5, N-(6-(4-(4-Acetylpiperazin-1-yl)phenoxy)-5-chloropyridin-3-yl)-2-chloro-4-(trifluoromethyl)benzenesulfonamide]",63.94%,1.85 ± 0.04,–
"CN(CCOc1ccc(CC2SC(=O)NC2=O)cc1)c1ccccn1 (stereo not shown) [Rosiglitazone, reference compound]",–,–,Normalization with control (plasma glucose reduction) ([2]; Rosiglitazone 5 mpk bid): 55.73 ± 4.46 and 53.34 ± 4.11
"CC(=O)N1CCN(c2ccc(Oc3ncc(NC(=O)CCC(=O)O)cc3Cl)cc2)CC1 [Compound 14, 4-(6-(4-(4-Acetylpiperazin-1-yl)phenoxy)-5-chloropyridin-3-ylamino)-4-oxobutanoic acid]",27.5%,1.49 ± 0.05,Normalization with control (plasma glucose reduction) ([2]; 100 mpk bid): Inactive
"O=S(=O)(Nc1cnc(Oc2ccccc2-c2nc3ccccc3s2)c(Cl)c1)c1ccc(Cl)cc1Cl [Compound 15, N-(6-(2-(Benzo[d]thiazol-2-yl)phenoxy)-5-chloropyridin-3-yl)-2,4-dichlorobenzene-sulfonamide]",36.7%,2.0 ± 0.13,–
